The structures appear in SMILES notation.

For `Cc1cccc2cc(CN(Cc3cc(C(F)(F)F)cc(C(F)(F)F)c3)c3ncc(N4CCOCC4)cn3)c(N(CC3CC3)CC3CC3)nc12`, the melting point (in general, the temperature of the solid-liquid transition) lay within 123 to 124 °C.
Then `COc1ccc(-n2nc(-c3c(-c4ccccc4)nn4ccccc34)ccc2=O)cc1`, with 158 °C; and `CCOC(=O)c1ccccc1OC`, with 75 to 76 °C; and `CCOC(=O)c1cc(NCc2ccccc2)c(OCC(F)(F)F)c(S(N)(=O)=O)c1`, with 163 to 165 °C.
Next, `NS(=O)(=O)C1(c2ncc(C(F)(F)F)cc2Cl)C=CC(Cl)=CC1Cl` (stereo not given): 125 to 126 °C; `C#Cc1ccc(-c2ccccc2F)cc1`: 28.5 to 31 °C.
Compound `COc1ccc(N(C(=O)CN2C(=O)c3ccccc3C2=O)c2ccccc2)cc1` had a melting point of 192 °C.
As to `O=C(Nc1ccccc1N1CCc2ccccc21)c1ccncc1`, the melting point lay within 120 to 121 °C.
Take `CCCCc1cn(Cc2ccc(-c3ccccc3C(=O)O)cc2)c2c(c1=O)CCCC2`: the melting point amounted to 260 °C.
Next, `CCOc1ccc2[nH]c3c([N+](=O)[O-])cc([N+](=O)[O-])c(Cl)c3c(=O)c2c1`: 238 to 241 °C; `CCOC(=O)c1nccc2c(C)c3c(cc12)c1cc(O)ccc1n3CC`: 260 °C; `Cc1cc2c(cc1N1CCCCC1)OC(=O)C2C` (stereo not given): 61 to 63 °C.
Next, `CCCCc1nc2c(N)nc3ccccc3c2o1`: 96 to 98 °C.
Regarding `CC(C)(C)c1ccc(/C=C/C(=O)Nc2ccc3ccn(CCO)c3c2)cc1`, the melting point was 178 °C.
In turn, `CN1CCC(=C(c2ccc(F)cc2)c2cccnc2)CC1` had a melting point of 93.1 °C.
Next, `CN(C(=O)C1(CCCCCCCCCCCCC2(C(=O)O)CC2)CC1)S(C)(=O)=O`: 62.9 to 63.7 °C; `COc1ccccc1NC(=O)Nc1nc(Oc2ccc3ccccc3c2)nc(N(CCC(=O)O)Cc2ccc(F)cc2)n1`: 211 to 217 °C; `Nc1cc(Br)c(F)c(Cl)c1F`: 86 to 88 °C.
Then `CCCCCCCCCCCCOC(=O)c1ccc(Cl)c(N)c1`, with 58.3 to 59.5 °C; and `CCOCCn1cc2c(C3C(=O)Nc4ccc(Br)cc43)nc(NCCN3CCOCC3)nc2n1` (stereo not given), with 276 to 278 °C; and `CCCCCCCCCCC/C=C\c1c[nH]c(C(=O)OC)c1`, with 51 to 52 °C.
Then `C=Cc1ccc2c(NCc3ccc(NC(=O)C4CCN(Cc5ccccc5)CC4)cc3)nc(N(C)C)nc2c1`, with 180 °C.
Regarding `CC(CN1CC=C(c2ccc(Cl)cc2)CC1)C(O)c1ccccc1` (stereo not given), the melting point was in the range of 103 to 105 °C.
Regarding `O=C(O)C1=Cc2cc(-c3ccc4c(c3)OCO4)ccc2SCC1`, the melting point was 227 to 229 °C.
The compound `Oc1cc2c(cc1CCc1cccs1)OCC2` gave a melting point of 79 to 85 °C.
Then `N#Cc1c(O)[nH]c2cccnc12`, with above 250 °C.
On to `CC(C)c1cc(O)cc(C(C)C)c1NC(=O)CN1CCN(CCSc2nc3ccccc3o2)CC1`, for which the melting point was 162 to 164 °C.
As to `COc1ccc(Nc2cnc3c(NCc4ccccc4)nc(NCCO)nc3c2)cc1OC`, the melting point fell in the range of 149 to 150 °C.
Then `Cc1cn(-c2cc(C)c(N)c(Br)c2)c(C)n1`, with 176 to 180 °C.
Regarding `CO/C(=C\C=C\c1cc2cc(Cl)c(Cl)cc2[nH]1)C(=O)O`, the melting point fell in the range of 249 to 250 °C.
As to `CN(C(=O)Nc1cccc(C(F)(F)F)c1)S(C)(=O)=O`, the melting point is 72 °C.
For the compound `CC1(C)C(C#N)C1(C)C`, the melting point turned out to be 17 °C.
Then `CC(C)(C)OC(=O)c1ccc(O)c(Br)c1`, with 106 to 108 °C; and `CC(C(=O)O)c1ccc2sc3ncccc3c(=O)c2c1` (stereo not given), with 206 to 208 °C.
Consider `Cc1ccccc1CC1=NNC(=O)CC1`, for which the melting point was 123 to 125 °C.
Then `C[C@]1(COC(=O)N2CCc3cc(Cl)ccc32)Cn2cc([N+](=O)[O-])nc2O1`, with 189 to 191 °C; and `CC(Oc1ncn(-c2ccc(C(F)(F)F)cc2)n1)C(=O)O` (stereo not given), with 215 to 218 °C; and `Cn1cccc1-c1ccc(C(F)(F)F)cc1`, with 39 to 40 °C.
`O=C(NCCn1cncn1)c1ccco1`: the melting point fell in the range of 131 to 133 °C.
Next, `Cc1c2cnc3c([N+](=O)[O-])cccc3c2nn1C`: 235 to 236 °C.
Compound `CCN(C(C)=O)c1cccc(-c2ccnc3c(C(=O)c4ccccc4)cnn23)c1` displayed a melting point of 158 to 160 °C.
Regarding `CNC(=O)CN1CCc2cc(Nc3ncc(Cl)c(N[C@H]4[C@@H](C(N)=O)[C@@H]5C=C[C@H]4C5)n3)c(OC)cc2CC1`, the melting point lay in the range of 135 to 145 °C.
Next, `COC(=O)COc1ccc(C2C(=O)Oc3c2cc(C(C)(C)C)cc3C(C)(C)C)cc1` (stereo not given): 115 to 117 °C; `Cc1noc(C)c1NC(=O)c1ccc(OC(F)F)c2oc(C3CCOC3)cc12` (stereo not given): 156 °C; `CCOC(=O)NC(=NC(=O)c1nc(Cl)c(N)nc1N)NC(=O)OCC`: 213 °C.
On to `COC(=O)c1nn(C2CCCCO2)cc1NC(=O)c1cccc(C)n1` (stereo not given), for which the melting point was 100 to 102 °C.
Then `O=C1OC(c2ccccc2)CC(O)=C1SCc1ccccc1` (stereo not given), with 150 to 152 °C; and `O=C1NCCCCC1c1cccc(O)c1` (stereo not given), with 175 to 178 °C.
Then `Cc1ccc2c(c1)c(N1CCN(C(=O)c3cccs3)CC1)c(C#N)c(=O)n2C`, with 214 °C; and `C#CCc1c(C)nc2c(OCc3ccncc3C)cccn12`, with 156 to 157 °C; and `COC(=O)CCCc1cc2nc(Cl)ccc2n1S(=O)(=O)c1ccc2c(c1)CCN2C(C)=O`, with 123 °C.
Then `CN(C)c1ccc(NC(=O)CCn2c(-c3ccc(Cl)cc3)nc3cccnc32)cc1`, with 216 to 218 °C; and `O=C(O)c1cccc(Cl)c1C(F)(F)F`, with 110 °C.
With `Cc1oc2cc(C3CC(=O)OC(=O)C3)ccc2c1C`, the melting point is 145 to 147 °C.
`O=C(O)CC(NS(=O)(=O)c1ccc2ccccc2c1)c1ccccc1` (stereo not given) showed a melting point of 123 to 126 °C.
The compound `C=C(c1ccc(Br)cc1)c1ccc(OC)cc1` came in with a melting point of 91.2 to 92.6 °C.
Take `O=C1c2c(cc(O)c(Cl)c2Cl)CC1C1CCCC1` (stereo not given): the melting point fell in the range of 222 to 225 °C.
Next, `CN(C)c1ccc2sc(S(N)(=O)=O)cc2c1`: 197 to 199 °C; `CCc1nc2ncnn2c(N[C@H]2CC[C@@H](C(C)(C)C)CC2)c1Cl`: 120 to 122 °C.
Take `O=c1[nH]c2ccccc2nc1-c1cc(O)c(O)c([N+](=O)[O-])c1`: the melting point is above 300 °C.
Then `COC(=O)C(c1cc2c(cc1Cl)OCO2)c1c[nH]c2cc(Br)ccc12` (stereo not given), with 172 to 174 °C; and `CC(=O)Nc1c(C(N)=O)n[nH]c1C(C)C`, with 162 to 164 °C; and `CN1CCc2cc(Cl)c(O)cc2[C@H](c2ccccc2)C1`, with 188 to 189 °C.
Next, `CN(C)CCc1ccc(O)c2[nH]nnc12`: 207 to 211 °C; `CCN1CCCC1CNC(=O)c1ccc(O)c(Cl)c1` (stereo not given): 228 °C.
Then `CCOC(=O)c1cccc(-c2ccc(F)c3cc(CBr)sc23)c1`, with 139 to 140 °C; and `O=C(CCc1c(C=C2C(=O)Nc3ccccc32)[nH]c2c1CCCC2)NCCN1CCOCC1`, with 256 to 258 °C.
The compound `COc1ccc2c(=O)cc(-c3ccc(F)cc3)oc2c1` displayed a melting point of 162 °C.
Next, `O=C(O)CCS(=O)(=O)CCCl`: 138 to 139 °C.
Next, `CO/C=C(/C(=O)OC)c1ccccc1Oc1cc(OCc2ccc([N+](=O)[O-])cc2)ncn1`: 96 to 98 °C; `CC1(O)CCN(Cc2ccc(C#CC(=O)Nc3ccc(-c4ccc(Cl)cc4)cc3)cc2)CC1`: 192 to 193 °C.
`CC(=O)C(C)S(=O)(=O)c1ccc(C=C(C)c2ccc3c(c2)C(C)(C)CCC3(C)C)cc1` (stereo not given) gave a melting point of 139 to 141 °C.
Next, `CSC1CCC2C3CCC4=CC(=O)C=CC4(C)C3(F)C(O)CC12C` (stereo not given): 235 to 236 °C; `Cn1nc2c(N)nc3ccccc3c2c1CC(C)(C)O`: 256 to 257 °C; `CC(C)(C)c1csc(-c2cc3cc(O)ccc3o2)n1`: 179 to 180 °C.
Then `CSC1C(=O)Nc2c(OCc3ccccc3)cccc21` (stereo not given), with 127 to 129 °C; and `NCCCCCCNc1nsc2nccn12`, with 81 to 82 °C; and `CCOC(=O)Oc1ccc([N+](=O)[O-])c(C(=O)O)c1`, with 132 to 137 °C.
In turn, `CCc1nc2c(N)nc3cc(-c4cccnc4)ccc3c2n1CC1CCN(C(=O)OC(C)(C)C)CC1` showed a melting point of 229 to 231 °C.
Then `O=C(Nc1cccc(S(=O)(=O)NC2CC2)c1)c1cnn2c(C(F)(F)F)cc(-c3ccc(Cl)c(Cl)c3)nc12`, with 248 °C.
In the case of `COC(=O)c1ccc(C=C2CCn3c2nc2cc([N+](=O)[O-])ccc2c3=O)cc1`, the melting point was in the range of 264 to 266 °C.
Next, `CCc1ccc(N2CCN(Cc3c[nH]c4ncccc34)CC2)cc1`: 216 to 217 °C.
`Cc1cc(-c2cc(C(F)(F)F)n3ncc(C(=O)Nc4cccc(S(=O)(=O)N5CCN(C)CC5)c4)c3n2)ccc1C(F)(F)F` gave a melting point of 199 °C.
Then `CCCCCCCCCCOC(C)c1ccc(C(=O)O)cc1` (single isomer, unassigned; (+)), with 56.6 to 57.5 °C.
For the compound `CC(N)Cc1cccc(N)c1` (stereo not given), the melting point was 78 to 79 °C.
Then `O=C1NC(=O)c2c(Sc3ccc([N+](=O)[O-])cc3)c(Sc3ccc([N+](=O)[O-])cc3)c(Sc3ccc([N+](=O)[O-])cc3)c(Sc3ccc([N+](=O)[O-])cc3)c21`, with 297 to 301 °C.
`C=CC(=O)Oc1ccc(N2C(=O)C(=C(C)C)/C(=C(\c3cc(C)oc3C)C(C)C)C2=O)cc1` came in with a melting point of 50 to 52 °C.
`CCCCC1CCCC2=C1C(=O)c1cc(C)c(C)cc1C2=O` (stereo not given) displayed a melting point of 88 to 90 °C.
Then `CCOC(=O)COc1ccc(C(=O)c2c(Br)cnn2CC)c(Cl)c1Cl`, with 90 to 91 °C; and `COCCNc1cc(NCCOC)c([N+](=O)[O-])cc1Cl`, with 106 °C.

For the origin of these results see a melting point compilation (Tetko et al.; mined from patent text by program, amines drawn as free bases though some values may be those of a salt).
